Experiments:
[1] = tested on: LPS-induced TNFα secretion in monocyte-derived macrophages (MdM); test: MdM assay: LPS-triggered TNFα (ELISA); format: cell-based, human; details: Homo sapiens, Macrophage, LPS-triggered TNFα inhibition
Method: This assay evaluates illustrative compounds of the invention for their inhibition of LPS-induced TNFα and LPS triggered IL-10 secretion in monocyte-derived macrophages.
PBMCs are isolated from human blood samples (buffycoats). The buffy coat is aseptically transferred into a 50 mL Falcon tube, and diluted 1/2 in PBS. Falcon tubes are filled with 20 mL Lymphoprep™, on top of which 25 mL of the buffy coat is carefully added, tubes are centrifuged for 35 min at 400 g in temperature controlled centrifuge, without brake, at 25° C. PBMCs are aspirated from the white interface layer between sample and Lymphoprep™. PBMCs are washed five times in PBS.
PBMCs are centrifuged at 300×g for 10 min and resuspended at a density of 1.0E07 cells/80 μL Miltenyi buffer (PBS, pH 7.4, 1% FBS, 2 mM EDTA).
Starting from this point of the protocol all steps are performed on ice. 20 μL of CD14+ micro-beads are added per 1.0E07 cells, the tube is mixed and incubated for 15 min in the fridge at 4° C. Cell suspension volume is adjusted to total volume of 100 mL using Miltenyi buffer, mixed gently and subsequently centrifuged for 10 min at 300× g. Supernantant is discarded and cell pellet is resuspended in 12 mL of Miltenyi buffer.
Four LS columns are placed in the MACS Separator (magnet) from Miltenyi Biotec, and are prewet by rinsing with 3 mL of MACS buffer per column. Three mL of cell suspension is added onto the column (max 1*10^8 of labelled cells/column), and columns are subsequently washed 3 times with 3 mL of Miltenyi buffer.
The columns are removed from the magnets, and 5 mL of Miltenyi buffer are added to the column to flush out the CD14+ fraction by pushing the plunger into the column. The flushed fractions are collected in a fresh 50 mL Falcon and volume is adjusted to 30 mL using Miltenyi buffer, cells are centrifuged for 10 min at 300× g. The obtained cell pellet is resuspended in 10 mL RPMI w/o FBS, and cell density is determined using a hematologic analyser (Sysmex XS-500i).
On day 10, MdMs are triggered and compound is added.
A compound dilution plate is made in 100% DMSO by 3-fold dilution of 10 mM stock solution. An intermediate dilution plate (10× final concentration) is made by diluting the compound dilution plate 50-fold in RPMI medium.
Medium is carefully removed from cell plates using multichannel pipette, and replaced by 80 μL fresh medium. 10 μL of the 10× final concentration compound is added to the cells and incubated for 1 hour at 37° C. before addition of trigger. No trigger conditions/trigger conditions are spiked with equal final DMSO concentrations of 0.2% DMSO. 10 μL of 10×LPS (final conc. 200 ng/mL) solution are added to all wells except for the ‘no trigger wells’ where 10 μL medium is added. Supernatant is collected after 2 h (IL-10 determination) and after 20 h (TNFα determination) of LPS triggering.
The plate is then washed once with PBST (PBS+0.05% Tween20) and once with PBS followed by the addition of 100 μL of blocking buffer (1% Bovine Serum Albumin (BSA)-5% Sucrose) and plates are sealed and incubated for at least 4 h at RT. After washing the plate once with PBST and once with PBS, 40 μL of standard or sample are added (TNFα standard curve is prepared using a 1/2 serial dilution starting from 16000 pg/mL; dilutions are made in dilution buffer (PBS+1% BSA)). Plates are washed twice with PBST, and once with PBS, after which 35 μL of the detection antibody is added (final concentration 0.25 μg/mL diluted in dilution buffer) and plates are incubated for at least 2 h at RT. Plates are washed twice with PBST, and once with PBS, where after 35 μL of Strep-HRP conjugate (0.5 μg/mL final concentration diluted in dilution buffer) is added. Plates are incubated in the dark, at RT for at least 45 min but no longer than 1 hour. Plates are washed twice with PBST, and once with PBS.

[2] = target: T1, SIK1 (Homo sapiens, UniProt P57059); test: biochemical; details: 33P radioactive SIK kinase assay, AMARA peptide, 10 μM ATP; read-out: SIK1 IC50
T1 construct: purchased Carna Biosciences 02-131
T1 sequence (P57059 whole entry): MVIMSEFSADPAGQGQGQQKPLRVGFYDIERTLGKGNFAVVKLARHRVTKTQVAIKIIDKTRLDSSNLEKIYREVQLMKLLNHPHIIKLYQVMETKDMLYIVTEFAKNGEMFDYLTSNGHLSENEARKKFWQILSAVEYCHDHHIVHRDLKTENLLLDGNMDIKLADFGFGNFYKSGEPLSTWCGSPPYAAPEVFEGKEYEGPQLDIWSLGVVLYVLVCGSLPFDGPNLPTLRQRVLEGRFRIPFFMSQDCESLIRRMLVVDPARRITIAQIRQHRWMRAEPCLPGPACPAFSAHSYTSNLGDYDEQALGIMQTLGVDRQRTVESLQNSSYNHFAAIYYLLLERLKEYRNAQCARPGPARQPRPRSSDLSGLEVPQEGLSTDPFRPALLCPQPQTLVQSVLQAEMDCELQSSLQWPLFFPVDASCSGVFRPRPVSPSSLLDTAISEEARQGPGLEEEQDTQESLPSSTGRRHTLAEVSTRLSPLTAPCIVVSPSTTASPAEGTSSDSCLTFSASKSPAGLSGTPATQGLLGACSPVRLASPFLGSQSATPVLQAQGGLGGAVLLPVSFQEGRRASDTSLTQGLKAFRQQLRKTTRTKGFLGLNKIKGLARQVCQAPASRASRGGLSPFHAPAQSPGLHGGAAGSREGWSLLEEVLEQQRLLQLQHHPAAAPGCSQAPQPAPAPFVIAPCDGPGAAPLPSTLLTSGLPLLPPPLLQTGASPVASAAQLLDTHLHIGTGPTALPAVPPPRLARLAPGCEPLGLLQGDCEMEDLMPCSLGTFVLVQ
How it was run: (§1)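 Read-out: ^33P incorporated into AMARA peptide, counted on filter plates, taken as kinase activity. Reactions start on addition of labeled/unlabeled ATP to enzyme plus substrate and end with phosphoric acid. Controls: 1% DMSO (negative) and 10 μM staurosporine (positive), final.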

[3] = target: T2, SIK3 (Homo sapiens, UniProt Q9Y2K2); test: biochemical
T2 construct: purchased SignalChem S12-11G-100
T2 sequence (Q9Y2K2 whole entry): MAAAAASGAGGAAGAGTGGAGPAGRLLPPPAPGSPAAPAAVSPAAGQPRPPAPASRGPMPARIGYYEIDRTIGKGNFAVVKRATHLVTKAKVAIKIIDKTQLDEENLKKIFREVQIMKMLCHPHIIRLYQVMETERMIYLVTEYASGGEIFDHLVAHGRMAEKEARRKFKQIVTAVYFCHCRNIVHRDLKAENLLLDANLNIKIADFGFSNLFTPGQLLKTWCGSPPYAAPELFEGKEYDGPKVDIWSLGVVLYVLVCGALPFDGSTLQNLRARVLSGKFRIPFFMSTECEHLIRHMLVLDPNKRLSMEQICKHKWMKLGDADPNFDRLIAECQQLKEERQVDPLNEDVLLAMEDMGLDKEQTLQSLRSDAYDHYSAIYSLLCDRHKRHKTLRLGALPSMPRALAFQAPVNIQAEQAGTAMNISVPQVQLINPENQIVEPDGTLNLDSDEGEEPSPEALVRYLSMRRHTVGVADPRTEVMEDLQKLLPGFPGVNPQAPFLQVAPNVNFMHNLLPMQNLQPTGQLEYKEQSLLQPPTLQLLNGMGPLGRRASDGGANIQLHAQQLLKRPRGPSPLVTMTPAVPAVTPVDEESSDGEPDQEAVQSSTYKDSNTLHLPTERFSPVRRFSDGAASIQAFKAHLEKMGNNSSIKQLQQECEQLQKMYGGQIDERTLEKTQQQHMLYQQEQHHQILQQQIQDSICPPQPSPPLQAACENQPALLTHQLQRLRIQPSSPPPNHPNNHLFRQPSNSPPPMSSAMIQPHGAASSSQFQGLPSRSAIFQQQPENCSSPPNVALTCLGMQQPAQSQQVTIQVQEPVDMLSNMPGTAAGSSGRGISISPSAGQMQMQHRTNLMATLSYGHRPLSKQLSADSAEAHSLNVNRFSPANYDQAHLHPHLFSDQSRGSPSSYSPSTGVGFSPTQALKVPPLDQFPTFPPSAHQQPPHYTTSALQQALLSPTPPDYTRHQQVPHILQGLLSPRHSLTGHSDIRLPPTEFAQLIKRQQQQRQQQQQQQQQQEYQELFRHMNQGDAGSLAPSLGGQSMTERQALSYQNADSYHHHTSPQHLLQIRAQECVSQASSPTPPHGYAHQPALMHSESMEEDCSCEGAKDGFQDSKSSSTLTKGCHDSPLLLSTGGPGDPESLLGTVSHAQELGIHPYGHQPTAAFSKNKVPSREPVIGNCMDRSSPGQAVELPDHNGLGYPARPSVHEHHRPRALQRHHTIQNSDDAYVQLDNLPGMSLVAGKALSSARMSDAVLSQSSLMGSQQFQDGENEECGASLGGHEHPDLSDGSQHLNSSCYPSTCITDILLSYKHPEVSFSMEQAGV
How it was run: as §1

[4] = target: T3, SIK2 (Homo sapiens, UniProt Q9H0K1); test: biochemical; details: 33P radioactive SIK kinase assay, AMARA peptide, 10 μM ATP
T3 construct: purchased ThermoFisher Scientific PV4792
T3 sequence (Q9H0K1 whole entry): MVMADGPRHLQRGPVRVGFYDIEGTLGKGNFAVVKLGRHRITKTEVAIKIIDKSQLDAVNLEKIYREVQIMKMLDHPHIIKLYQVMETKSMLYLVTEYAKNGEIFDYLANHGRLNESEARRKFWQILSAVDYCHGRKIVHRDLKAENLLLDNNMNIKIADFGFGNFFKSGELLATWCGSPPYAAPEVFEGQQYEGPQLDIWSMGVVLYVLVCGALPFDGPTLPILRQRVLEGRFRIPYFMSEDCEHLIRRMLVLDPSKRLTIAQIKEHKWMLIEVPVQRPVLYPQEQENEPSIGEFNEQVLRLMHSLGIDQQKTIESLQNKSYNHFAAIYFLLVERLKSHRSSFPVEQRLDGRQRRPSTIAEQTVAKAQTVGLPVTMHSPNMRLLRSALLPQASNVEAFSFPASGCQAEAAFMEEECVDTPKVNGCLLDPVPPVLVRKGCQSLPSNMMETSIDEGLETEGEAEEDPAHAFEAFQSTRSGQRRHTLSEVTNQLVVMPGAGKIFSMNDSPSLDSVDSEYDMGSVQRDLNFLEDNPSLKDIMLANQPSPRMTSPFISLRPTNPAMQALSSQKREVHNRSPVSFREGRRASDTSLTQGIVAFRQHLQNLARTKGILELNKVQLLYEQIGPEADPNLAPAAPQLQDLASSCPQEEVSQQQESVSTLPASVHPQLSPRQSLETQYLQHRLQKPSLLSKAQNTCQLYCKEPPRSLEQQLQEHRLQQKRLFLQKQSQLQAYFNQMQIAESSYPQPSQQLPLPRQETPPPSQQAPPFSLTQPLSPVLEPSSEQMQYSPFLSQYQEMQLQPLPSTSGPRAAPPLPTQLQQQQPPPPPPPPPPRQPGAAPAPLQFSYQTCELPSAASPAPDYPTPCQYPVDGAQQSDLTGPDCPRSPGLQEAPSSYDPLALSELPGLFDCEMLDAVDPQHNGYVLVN
How it was run: as §1

Compound	EC50 [1]	IC50 [2]	IC50 [3]	IC50 [4]
COc1cc(-n2cnc3cc(-n4cnc(C)c4)ccc32)cc(OC)c1C(=O)NCC(F)(F)F [Cpd 155, 2.6-dimethoxy-4-[5-(4-methylimidazol-1-yl)benzimidazol-1-yl]-N-(2,2,2-trifluoroethyl)benzamide]	1000 to 5000 nM	100 to 500 nM	10 to 100 nM	10 to 100 nM
COc1cc(-n2cnc3cc(-c4nnc(C)[nH]4)ccc32)cc(OC)c1C(=O)NCC(F)(F)F [Cpd 127, 2,6-dimethoxy-4-[5-(5-methyl-4H-1,2,4-triazol-3-yl)benzimidazol-1-yl]-N-(2,2,2-trifluoroethyl)benzamide]	> 5000 nM	> 500 nM	100 to 500 nM	100 to 500 nM
COc1cc(-n2cnc3cc(-c4cnn(CC#N)c4)ccc32)cc(OC(F)F)c1C(=O)NC1CC1 [Cpd 55, 4-[5-[1-(cyanomethyl)pyrazol-4-yl]benzimidazol-1-yl]-N-cyclopropyl-2-(difluoromethoxy)-6-methoxy-benzamide]	0.1 to 100 nM	0.01 to 10 nM	0.01 to 10 nM	0.01 to 10 nM
COc1cc(-c2cnc3cc(-c4cnn(C)c4)ccn23)cc(OC)c1C(=O)N1CCC(C#N)C1 (stereo not drawn) [compound 210, 1-[2,6-dimethoxy-4-[7-(1-methylpyrazol-4-yl)imidazo[1,2-a]pyridin-3-yl]benzoyl]pyrrolidine-3-carbonitrile]	100 to 1000 nM	10 to 100 nM	0.01 to 10 nM	10 to 100 nM
COc1cc(-c2cnc3cc(-c4cnn(C)c4)ccn23)cc(OC)c1C(=O)N1CC(C)(C)C1 [compound 208, [2,6-dimethoxy-4-[7-(1-methylpyrazol-4-yl)imidazo[1,2-a]pyridin-3-yl]phenyl]-(3,3-dimethylazetidin-1-yl)methanone]	100 to 1000 nM	0.01 to 10 nM	0.01 to 10 nM	0.01 to 10 nM
CCNC(=O)c1c(OC)cc(-c2cnc3cc(-c4ccc(C#N)nc4)ccn23)cc1OC(F)F [compound 146, 4-[7-(6-cyano-3-pyridyl)imidazo[1,2-a]pyridin-3-yl]-2-(difluoromethoxy)-N-ethyl-6-methoxy-benzamide]	100 to 1000 nM	100 to 500 nM	10 to 100 nM	10 to 100 nM
COc1cc(-n2cnc3cc(-c4ccc(N)nc4)ccc32)cc(OC)c1C(=O)NCC(F)(F)F [compound 38, 4-[5-(6-amino-3-pyridyl)benzimidazol-1-yl]-2,6-dimethoxy-N-(2,2,2-trifluoroethyl)benzamide]		100 to 500 nM	10 to 100 nM	10 to 100 nM
COc1cc(-n2cnc3cc(-c4ccn(C)n4)ccc32)cc(OC)c1C(=O)NCC(F)(F)F [compound 89, 2,6-dimethoxy-4-[5-(1-methylpyrazol-3-yl)benzimidazol-1-yl]-N-(2,2,2-trifluoroethyl)benzamide]		10 to 100 nM	10 to 100 nM	10 to 100 nM
CCn1cc(-c2ccc3c(c2)ncn3-c2cc(OC)c(C(=O)NC3CCCC3)c(OC)c2)cn1 [compound 45, N-cyclopentyl-4-[5-(1-ethylpyrazol-4-yl)benzimidazol-1-yl]-2,6-dimethoxy-benzamide]		10 to 100 nM	10 to 100 nM	10 to 100 nM
COc1cc(-n2cnc3cc(-c4cncn4C)ccc32)cc(OC)c1C(=O)NCC(F)(F)F [compound 135, 2,6-dimethoxy-4-[5-(3-methylimidazol-4-yl)benzimidazol-1-yl]-N-(2,2,2-trifluoroethyl)benzamide]		> 500 nM	100 to 500 nM	100 to 500 nM
COc1cc(-n2cnc3cc(-c4cnn(C)c4)ccc32)cc(OC)c1C(=O)N1CC(O)C1 [compound 184, [2,6-dimethoxy-4-[5-(1-methylpyrazol-4-yl)benzimidazol-1-yl]phenyl]-(3-hydroxyazetidin-1-yl)methanone]		100 to 500 nM	100 to 500 nM	100 to 500 nM
COc1cc(-n2cnc3cc(-c4cnn(C)c4)ccc32)cc(OC)c1C(=O)NCCF [compound 79, N-(2-fluoroethyl)-2,6-dimethoxy-4-[5-(1-methylpyrazol-4-yl)benzimidazol-1-yl]benzamide]		10 to 100 nM	0.01 to 10 nM	0.01 to 10 nM
COc1cc(-n2cnc3cc(-c4cnn(C)c4)ccc32)cc(OC)c1C(=O)N1CCC1CO (stereo not drawn) [compound 193, [2,6-dimethoxy-4-[5-(1-methylpyrazol-4-yl)benzimidazol-1-yl]phenyl]-[2-(hydroxymethyl)azetidin-1-yl]methanone]		> 500 nM	> 500 nM	> 500 nM
COCCCNC(=O)c1c(OC)cc(-n2cnc3cc(-c4cnn(C)c4)ccc32)cc1OC [compound 60]		10 to 100 nM	100 to 500 nM	10 to 100 nM
COc1cc(-n2cnc3cc(-c4cnn(C)c4)ccc32)cc(OC)c1C(=O)NCc1ccccn1 [compound 62, 2,6-dimethoxy-4-[5-(1-methylpyrazol-4-yl)benzimidazol-1-yl]-N-(2-pyridylmethyl)benzamide]		100 to 500 nM	100 to 500 nM	100 to 500 nM
COc1cc(-n2cnc3cc(-c4cnn(C)c4)ccc32)cc(OC)c1C(=O)NC1CCCCC1OC (stereo not drawn) [compound 161, 2,6-dimethoxy-N-(2-methoxycyclohexyl)-4-[5-(1-methylpyrazol-4-yl)benzimidazol-1-yl]benzamide]		> 500 nM	> 500 nM	> 500 nM
COc1cc(-n2cnc3cc(-n4ccc(C)n4)ccc32)cc(OC)c1C(=O)NCC(F)(F)F [Cpd 154, 2,6-dimethoxy-4-[5-(3-methylpyrazol-1-yl)benzimidazol-1-yl]-N-(2,2,2-trifluoroethyl)benzamide]		100 to 500 nM	100 to 500 nM	100 to 500 nM
COc1cc(-n2cnc3cc(-c4cnn(C)c4)ccc32)cc(OC)c1C(=O)N[C@@H]1CCC[C@H]1O [compound 143, N-[(1R,2R)-2-hydroxycyclopentyl]-2,6-dimethoxy-4-[5-(1-methylpyrazol-4-yl)benzimidazol-1-yl]benzamide]		100 to 500 nM	10 to 100 nM	10 to 100 nM
COc1cc(-c2cnc3cc(-c4cnn(C)c4)ccn23)cc(OC)c1C(=O)N1CCC(F)(F)C1 [compound 211, (3,3-difluoropyrrolidin-1-yl)-[2,6-dimethoxy-4-[7-(1-methylpyrazol-4-yl)imidazo[1,2-a]pyridin-3-yl]phenyl]methanone]		10 to 100 nM	10 to 100 nM	10 to 100 nM
COc1cc(-n2cnc3cc(-c4conc4C)ccc32)cc(OC)c1C(=O)NCC(F)(F)F [compound 108, 2,6-dimethoxy-4-[5-(3-methylisoxazol-4-yl)benzimidazol-1-yl]-N-(2,2,2-trifluoroethyl)benzamide]		100 to 500 nM	100 to 500 nM	100 to 500 nM

— patent US12065443B2, “Compounds and pharmaceutical compositions thereof for the treatment of diseases” (priority 2017, dated 2024)
